As usually defined, the inhibition is the percentage by which the read-out fell short of the control. A word on the melting point: it is the temperature, or range, at which the solid turns liquid.

Our source for the inhibition and melting point values is patent US8623902B2, “Microbiocides” (Syngenta Crop Protection, LLC, priority 2008, dated 2014).

The test system of one data set is Pyrenophora teres. Briefly: Action against Pyrenophora teres (net blotch) on barley. Type of data set: in vivo. The following applies: foliar, 96 h, barley leaf segments sprayed with 0.02% active ingredient, assessed 4 days after inoculation, read-out: preventive fungicidal activity (inhibition). How it is done: Action Against Pyrenophora teres (Net Blotch) on Barley Barley leaf segments are placed on agar in multiwell plates (24-well format) and sprayed with test solutions (0.02% active ingredient). After drying, the leaf disks are inoculated with a spore suspension of the fungus. After appropriate incubation the activity of a compound is assessed 4 days after inoculation as preventive fungicidal activity.

For data set [1], the system named is Puccinia recondita. Briefly: Curative action against Puccinia recondita (brown rust) on wheat. Format: in vivo. As to conditions: foliar, wheat leaf segments sprayed with 0.02% active ingredient one day after inoculation, assessed 8 days after inoculation, read-out: curative fungicidal activity (inhibition). The procedure: Curative Action Against Puccinia recondita (Brown Rust) on Wheat Wheat leaf segments are placed on agar in multiwell plates (24-well format) and inoculated with a spore suspension of the fungus. One day after inoculation the leaf segments are sprayed with test solutions (0.02% active ingredient). After appropriate incubation the activity of a compound is assessed 8 days after inoculation as curative fungicidal activity.

Data set [2] deals with Puccinia recondita. Briefly: Protective action against Puccinia recondita (brown rust) on wheat. Format: in vivo. As to conditions: foliar, 192 h, wheat leaf segments sprayed with 0.02% active ingredient, assessed 8 days after inoculation, read-out: preventive fungicidal activity (inhibition). The procedure: Protective Action Against Puccinia recondita (Brown Rust) on Wheat Wheat leaf segments are placed on agar in multiwell plates (24-well format) and sprayed with test solutions (0.02% active ingredient). After drying, the leaf disks are inoculated with a spore suspension of the fungus. After appropriate incubation the activity of a compound is assessed 8 days after inoculation as preventive fungicidal activity.

Data set [3] relates to Erysiphe graminis f.sp. tritici. Briefly: Action against Erysiphe graminis f.sp. tritici (wheat powdery mildew), wheat leaf segments. Format: in vivo. The following applies: Blumeria graminis, foliar, 168 h; wheat leaf segments sprayed with 0.02% active ingredient, assessed 7 days after inoculation; read-out: preventive fungicidal activity (inhibition). The procedure:
Action Against Erysiphe graminis f.sp. tritici (Wheat Powdery Mildew) Wheat leaf segments are placed on agar in multiwell plates (24-well format) and sprayed with test solutions (0.02% active ingredient). After drying, the leaf disks are inoculated with a spore suspension of the fungus. After appropriate incubation the activity of a compound is assessed 7 days after inoculation as preventive fungicidal activity.

A further data set concerns Botrytis cinerea. Briefly: Action against Botrytis cinerea - fungal growth assay. As to conditions: 0.002% active ingredient, PDB broth, 24° C., photometric after 3-4 days. Format: cell-based. How it is done:
(§1) Action Against Botrytis cinerea—Fungal Growth Assay Conidia of the fungus from cryogenic storage are directly mixed into nutrient broth (PDB potato dextrose broth). After placing a (DMSO) solution of the test compounds (0.002% active ingredient) into a microtiter plate (96-well format) the nutrient broth containing the fungal spores is added. The test plates are incubated at 24° C. and the inhibition of growth is measured photometrically after 3-4 days. The activity of a compound is expressed as fungal growth inhibition (0=no growth inhibition, ratings of 80% to 99% mean good to very good inhibition, 100%=complete inhibition).

The subject of another data set is Rhizoctonia solani. Briefly: Action against Rhizoctonia solani - fungal growth assay. Type of data set: cell-based. As to conditions: 0.002% active ingredient, PDB broth, 24° C., photometric after 3-4 days. How it is done: as §1, with “Rhizoctonia solani—Fungal” for “Botrytis cinerea—Fungal”, “Mycelial fragments of a newly grown liquid culture” for “Conidia”, “fungus” for “fungus from cryogenic storage”

For data set [4], the system named is Leptosphaeria nodorum (Septoria nodorum). Briefly: Action against Leptosphaeria nodorum (Septoria nodorum; glume blotch) on wheat. Type of data set: in vivo. The following applies: Parastagonospora nodorum, foliar, 96 h; wheat leaf segments sprayed with 0.02% active ingredient, assessed 4 days after inoculation; read-out: preventive fungicidal activity (inhibition). The procedure: Action Against Leptosphaeria nodorum (Septoria nodorum; Glume Blotch) on Wheat Wheat leaf segments are placed on agar in multiwell plates (24-well format) and sprayed with test solutions (0.02% active ingredient). After drying, the leaf disks are inoculated with a spore suspension of the fungus. After appropriate incubation the activity of a compound is assessed 4 days after inoculation as preventive fungicidal activity.

For the next data set, the system named is Septoria tritici. Briefly: Action against Septoria tritici - fungal growth assay. Format: cell-based. As to conditions: Zymoseptoria tritici; 0.002% active ingredient, PDB broth, 24° C., photometric after 72 hrs. The procedure: as §1, with “Septoria tritici—Fungal” for “Botrytis cinerea—Fungal”, “determined” for “measured”, “72 hrs.” for “3-4 days.”
In data set [5] the test system is Mycosphaerella arachidis (early leaf spot of groundnut; Cercospora arachidicola [anamorph]). Briefly: Action against Mycosphaerella arachidis - fungal growth assay. As to conditions: 0.002% active ingredient, PDB broth, 24° C., photometric after 6-7 days. Type of data set: cell-based. How it is done: as §1, with “Mycosphaerella arachidis (Early Leaf Spot of Groundnut; Cercospora arachidicola [anamorph])—Fungal” for “Botrytis cinerea—Fungal”, “6-7” for “3-4”

Data set [6] concerns Monographella nivalis (anamorph: Fusarium nivale, Microdochium nivale; snow mould). Briefly: Action against Monographella nivalis - fungal growth assay. As to conditions: 0.002% active ingredient, PDB broth, 24° C., photometric after 72 hrs. Format: cell-based. The procedure: as §1, with “Monographella nivalis (Anamorph: Fusarium nivale, Microdochium nivale; Snow Mould)—Fungal” for “Botrytis cinerea—Fungal”, “DMSO-solution” for “(DMSO) solution”, “72 hrs” for “3-4 days. The activity of a compound is expressed as fungal growth inhibition”

The structures appear in SMILES notation. A value given as a limit tells only on which side of the number the result lay.

On to `Cc1cccc(C)c1OC[C@@H]1CCCN1C(=O)c1cn(C)nc1C(F)F` [Compound 1.068], for which the melting point was 137 to 140 °C. The inhibition at 0.02 % strength with Pyrenophora teres is not below 80%. Besides, the inhibition at 0.02 % strength with Puccinia recondita [1] was not below 80%. The inhibition at 0.02 % strength in the data set with Puccinia recondita [2] was not below 80%. In data set [3], the inhibition at 0.02 % strength was not below 80%. Further, the inhibition at 0.002 % strength in the data set with Botrytis cinerea is not below 80%. The compound further yielded an inhibition at 0.002 % strength with Rhizoctonia solani not below 50%. For the same compound, in data set [4], the inhibition at 0.02 % strength is not below 50%. The compound further had an inhibition at 0.002 % strength in the data set on Septoria tritici not below 80%. In data set [5], this compound showed an inhibition at 0.002 % strength not below 80%.

With `Cn1cc(C(=O)N2CCC[C@H]2COc2c(Cl)cc(Cl)cc2Cl)c(C(F)F)n1` [Compound 1.006], the inhibition at 0.02 % strength in the data set with Pyrenophora teres was not below 80%; with Puccinia recondita [1], not below 80%; with Puccinia recondita [2] it was not below 80%; in data set [3] it was not below 80%; in data set [4] it was not below 50%. In addition, the inhibition at 0.002 % strength was not below 50% in [6]; not below 80% in the data set with Botrytis cinerea; not below 50% in the data set with Rhizoctonia solani; not below 80% with Septoria tritici; not below 80% in [5].

Take `Cn1cc(C(=O)N2CCCC2Cc2c(Cl)cccc2Cl)c(C(F)F)n1` (centres unmarked) [Compound 1.110, [2-(2,6-dichloro-benzyl)-pyrrolidin-1-yl]-(3-difluoromethyl-1-methyl-1H-pyrazol-4-yl)-methanone]: the inhibition at 0.02 % strength was not below 80% with Pyrenophora teres and not below 50% in data set [3]. Also, the inhibition at 0.002 % strength (in the data set on Septoria tritici; in data set [5]) was not below 80% throughout.

Consider `Cn1cc(C(=O)N2CCC[C@H]2C(F)c2ccc(Cl)cc2)c(C(F)F)n1` (stereo partly drawn) [Compound 1.215, {(S)-2-[(4-chlorophenyl)-fluoro-methyl]-pyrrolidin-1-yl}-(3-difluoromethyl-1-methyl-1H-pyrazol-4-yl)-methanone], for which the results for the inhibition at 0.02 % strength (with Pyrenophora teres; in data set [4]) were not below 80% and not below 50%, respectively. Besides, the inhibition at 0.002 % strength (in the data set on Septoria tritici; in data set [5]) was not below 80% throughout.

As to `CO/N=C/c1cc(Cl)c(OC[C@@H]2CCCN2C(=O)c2cn(C)nc2C(F)F)c(Cl)c1` [Compound 1.021, 3,5-dichloro-4-[(S)-1-(3-difluoromethyl-1-methyl-1H-pyrazole-4-carbonyl)-pyrrolidin-2-ylmethoxy]-benzaldehyde O-methyl-oxime], the inhibition at 0.02 % strength in the data set with Pyrenophora teres and in the data set on Puccinia recondita [2] was not below 80% each time. Also, the inhibition at 0.002 % strength in the data set with Botrytis cinerea was not below 80%; in the data set with Rhizoctonia solani, not below 50%; in the data set on Septoria tritici, not below 80%; in data set [5] it was not below 80%.

Take `Cn1cc(C(=O)N2CCC[C@H]2C(=O)c2ccc(Cl)cc2)c(C(F)F)n1` [Compound 1.259, (4-chloro-phenyl)-[(S)-1-(3-difluoromethyl-1-methyl-1H-pyrazole-4-carbonyl)-pyrrolidin-2-yl]-methanone]: in the data set with Pyrenophora teres, the inhibition at 0.02 % strength is not below 50%.
